The values below come from PMC3660459 (PLoS ONE, 2013).

Series [1] deals with F. tularensis Schu S4. It counts as cell-based, Francisella tularensis subspecies tularensis Schu S4.
The test system of series [2] is F. tularensis Schu S4. Kind of series: microbe, parasite or virus in culture. It is filed as cell-based, Francisella tularensis subspecies tularensis Schu S4. The note with it: Francisella tularensis, SCHUS4.
The target in series [3] is NH3-dependent NAD^+ synthetase (nadE). The note with it: read-out: enzymatic IC50; cited from earlier work.
The next series relates to B. anthracis Sterne. Conditions: cited from earlier work.

Values after ≈ are worked out from the molar mass of the structure shown. Values joined by “and” are separate entries in the source; they are usually repeats but may differ in a detail not shown here. Equal values may be shown once.

`Nc1nc(NC2CC2)c2ncn([C@H]3C=C[C@@H](CO)C3)c2n1` [Compound 1, [n]2(c3nc(nc(c3nc2)NC4CC4)N)[C@@H]1C[C@@H](C = C1)CO]: in the series with F. tularensis Schu S4 [1], the “Growth Inhibition” value is on record as “No”. On to `O.O.O=C1NC(c2ccccc2)(c2ccccc2)C(=O)N1COP(=O)(O)O` [Compound 2, [P]( = O)([O-])([O-])OCN1C( = O)NC(C1 = O)(c3ccccc3)c2ccccc2.O.O], for which the “Growth Inhibition” value with F. tularensis Schu S4 [1] is on record as “No”. Same read-out and setting: under `CC(c1cc2ccccc2s1)N(O)C(N)=O` (centres unmarked) [Compound 3, [s]1c2c(cc1C(N(O)C( = O)N)C)cccc2] stands “No”; under `Cc1ccc(-c2cc(C(F)(F)F)nn2-c2ccc(S(N)(=O)=O)cc2)cc1` [Compound 4, FC(F)(F)c1n[n](c(c1)c3ccc(cc3)C)c2ccc(cc2)[S]( = O)( = O)N], “No”. As to `O=C1/C(=C\c2ccc(-n3ccnc3)cc2)Oc2cc(O)ccc21` [Compound 5, [n]4(cncc4)c1ccc(cc1)\C = C2\Oc3c(ccc(c3)O)C\2 = O], the “Growth Inhibition” value with F. tularensis Schu S4 [1] is “showed activity against the bacteria and Yes”. The MIC with F. tularensis Schu S4 [2] was more than 125 mg/L. In the series on RAW 264.7 cells, the Toxicity result was “non-toxic”.

In the case of `Cc1cc(CC(N)C(=O)O)on1` (centres unmarked) [Compound 6, NC(Cc1[o]nc(c1)C)C( = O)O], in the series on F. tularensis Schu S4 [1], the “Growth Inhibition” value is given as “No”.

With `NC(Cc1ccc(Br)s1)C(=O)O` (centres unmarked) [Compound 7, [s]1c(ccc1CC(N)C( = O)O)Br], the “Growth Inhibition” value in the series with F. tularensis Schu S4 [1] was “No”. As for `C=C(O[C@@H]1C=C(C(=O)O)C=C[C@H]1O)C(=O)O` [Compound 8, O([C@H]1[C@@H](C = CC( = C1)C( = O)O)O)C( = C)C( = O)O], the “Growth Inhibition” value in the series with F. tularensis Schu S4 [1] is given as “No”.

Regarding `O=C1NN(c2cccc(Br)c2)C(=O)/C1=C\c1ccc(-c2ccccc2C(=O)O)o1` [Compound 9, Brc1cc(ccc1)N2NC( = O)\C( = C\c3[o]c(cc3)c4c(cccc4)C( = O)O)\C2 = O], the “Growth Inhibition” value in the series on F. tularensis Schu S4 [1] is listed as “No”. As for `NC(=O)c1ccc(-c2ccc(/C=C3/C(=O)NN(c4ccc(F)cc4)C3=O)o2)cc1` [Compound 10, Fc1ccc(cc1)N2NC( = O)\C( = C\c3[o]c(cc3)c4ccc(cc4)C( = O)N)\C2 = O], the “Growth Inhibition” value in the series on F. tularensis Schu S4 [1] was “No”.

Take `COc1cc(C=O)ccc1OCc1ccccc1COc1ccc(/C=C2/SC(=S)NC2=O)cc1OC` [Compound 11, S1\C( = C\c2cc(c(cc2)OCc3c(cccc3)COc4c(cc(cc4)C = O)OC)OC)\C( = O)NC1 = S]: the “Growth Inhibition” value in the series on F. tularensis Schu S4 [1] is reported as “No”. Consider `O=Cc1cnn2c(=O)c3ccccc3[nH]c12` [Compound 12, [n]21ncc(c2Nc3c(cccc3)C1 = O)C = O], for which, in the series on F. tularensis Schu S4 [1], the “Growth Inhibition” value was “showed activity against the bacteria and Yes”. In the series with F. tularensis Schu S4 [2], the MIC came to 63 mg/L (≈ 296 µM).

For `Cc1nn2c(=O)c3ccccc3[nH]c2c1C=O` [Compound 13, [n]21nc(c(c2Nc3c(cccc3)C1 = O)C = O)C], the “Growth Inhibition” value with F. tularensis Schu S4 [1] is “showed activity against the bacteria and Yes”. The MIC with F. tularensis Schu S4 [2] is > 125 µg/mL and ~400 µM. In addition, the Toxicity entry in the series on RAW 264.7 cells is reported as “non-toxic”. In the case of `Cc1cc(Nc2ccccc2)n(C(=O)c2ccc(Cl)cc2)n1` [Compound 14, Clc1ccc(cc1)C( = O)[n]2nc(cc2Nc3ccccc3)C], in the series with F. tularensis Schu S4 [1], the “Growth Inhibition” value is “showed activity against the bacteria and Yes”; the “Reduction of growth versus no-compound control” value is “completely abolished bacterial growth”. The MIC against F. tularensis Schu S4 [2] turned out to be 4 mg/L (≈ 12.8 µM). Regarding `Nc1ccccc1CN1C(=O)c2ccccc2C1=O` [Compound 15, N2(C( = O)c3c(cccc3)C2 = O)Cc1c(cccc1)N], the “Growth Inhibition” value in the series with F. tularensis Schu S4 [1] is “No”. Regarding `N#Cc1ccc(Oc2ccccc2O)c(F)c1` [Compound 16, Fc1c(ccc(c1)C#N)Oc2c(cccc2)O], in the series on F. tularensis Schu S4 [1], the “Growth Inhibition” value is recorded as “No”. Regarding `NC(=O)c1ccc(Oc2ccccc2O)c(F)c1` [Compound 17, Fc1c(ccc(c1)C( = O)N)Oc2c(cccc2)O], the “Growth Inhibition” value with F. tularensis Schu S4 [1] is “No”.

Turning to `Cc1cc2ccccc2n1CC(=O)NCc1cccnc1N(C)C` [Compound 18, [n]2(c3c(cc2C)cccc3)CC( = O)NCc1c(nccc1)N(C)C], in the series with F. tularensis Schu S4 [1], the “Growth Inhibition” value is recorded as “No”. Still for that read-out and setting: the value for `Nc1nc(O)c2nc(CNc3ccc(C(=O)O)cc3)cnc2n1` [Compound 19, N(Cc2nc3c(nc(nc3O)N)nc2)c1ccc(cc1)C( = O)O] was “No”; that for `Nc1nc(N)c2nc(CNc3ccc(C(=O)O)cc3)cnc2n1` [Compound 20, N(Cc2nc3c(nc(nc3N)N)nc2)c1ccc(cc1)C( = O)[O-]] was “No”; that for `NC(=O)c1nc[nH]c1C(N)=O` [Compound 21, [nH]1cnc(c1C( = O)N)C( = O)N] was “No”. With `O=[N+]([O-])c1ccc(NC2OC(CO)C(O)C(O)C2O)cc1` (centres unmarked) [Compound 22, [N+]( = O)([O-])c1ccc(cc1)NC2OC(C(C(C2O)O)O)CO], the “Growth Inhibition” value with F. tularensis Schu S4 [1] is given as “No”. Regarding `Cc1ccc(OC2OC(CO)C(O)C(O)C2O)cc1C` (centres unmarked) [Compound 23, O1C(C(C(C(C1CO)O)O)O)Oc2cc(c(cc2)C)C], the “Growth Inhibition” value in the series with F. tularensis Schu S4 [1] is listed as “No”. As to `OCC1OC(Oc2ccc(Cl)cc2Cl)C(O)C(O)C1O` (centres unmarked) [Compound 24, Clc1c(ccc(c1)Cl)OC2OC(C(C(C2O)O)O)CO], the “Growth Inhibition” value in the series with F. tularensis Schu S4 [1] is “showed activity against the bacteria and Yes”. Also, in the series on F. tularensis Schu S4 [2], the MIC was > 125 µg/mL and ~400 µM. Besides, the Toxicity result in the series with RAW 264.7 cells is reported as “non-toxic”.

On to `CCOc1ccc(NC2OC(CO)C(O)C(O)C2O)cc1` (centres unmarked) [Compound 25, N(C2OC(C(C(C2O)O)O)CO)c1ccc(cc1)OCC], for which the “Growth Inhibition” value in the series on F. tularensis Schu S4 [1] is recorded as “No”.

In the case of `OCC1OC(Nc2ccccc2)C(O)C(O)C1O` (centres unmarked) [Compound 26, N(C2OC(C(C(C2O)O)O)CO)c1ccccc1], the “Growth Inhibition” value in the series on F. tularensis Schu S4 [1] is given as “No”. Same read-out and setting: the value for `O[C@@H]1[C@@H](O)[C@H](Nc2ccc(Br)cc2)OC[C@H]1O` [Compound 27, Brc1ccc(cc1)N[C@@H]2OC[C@H]([C@@H]([C@H]2O)O)O] was “No”; that for `NC(=O)c1ncn([C@@H]2O[C@H](CO)[C@@H](O)[C@H]2O)c1O` [Compound 28, [n]2(cnc(c2O)C( = O)N)[C@@H]1O[C@@H]([C@H]([C@H]1O)O)CO] was “No”; that for `Cc1ccc(NC2OCC(O)C(O)C2O)cc1` (centres unmarked) [Compound 29, N(C2OCC(C(C2O)O)O)c1ccc(cc1)C] was “No”. As for `NC(=O)c1ncn([C@@H]2O[C@H](CO)C(O)C2O)c1N` (some centres unmarked) [Compound 30, [n]2(cnc(c2N)C( = O)N)[C@@H]1O[C@@H](C(C1O)O)CO], the “Growth Inhibition” value with F. tularensis Schu S4 [1] is reported as “No”. The same measure, in the same setting: the value for `CCOC(=O)c1cc2c(nc1C(=O)OCC)CCCC2=O` [Compound 31, n1c2c(cc(c1C( = O)OCC)C( = O)OCC)C( = O)CCC2] was “No”; that for `NC(=O)COc1cccnc1C(=O)O` [Compound 32, NC( = O)COc1c(nccc1)C( = O)O] was “No”; that for `COc1ccc([C@@H]2CC(=O)c3c(O)cc(O)cc3O2)cc1O` [Compound 33, O1[C@@H](CC( = O)c3c1cc(cc3O)O)c2cc(c(cc2)OC)O] was “No”. The same measure, in the same setting: under `CC(C)[C@H](N)C(=O)OCCOCn1cnc2c(O)nc(N)nc21` [Compound 34, [n]1(c2nc(nc(c2nc1)O)N)COCCOC( = O)[C@@H](N)C(C)C] stands “No”. Consider `O=[N+]([O-])c1ccc(O)c(/C=N/c2cccc(O)c2)c1` [Compound 35, [N+]( = O)([O-])c1cc(c(cc1)O)\C = N\c2cc(ccc2)O], for which, in the series with F. tularensis Schu S4 [1], the “Growth Inhibition” value was “showed activity against the bacteria and Yes”; the “Reduction of growth versus no-compound control” value is on record as “completely abolished bacterial growth”. This molecule returned an MIC with F. tularensis Schu S4 [2] of 32 mg/L (≈ 124 µM). Also, the half-maximal inhibitory concentration (IC50) in series [3] was 2.5 µM. The MIC in the series with B. anthracis Sterne is listed as more than 387 µM.

With `O=C(Cn1cc(/C=C/c2nc(O)nc(O)c2[N+](=O)[O-])c2ccccc21)Nc1ccc(F)cc1` [Compound 36, Fc1ccc(cc1)NC( = O)C[n]2c3c(c(c2)\C = C\c4nc(nc(c4[N+]( = O)[O-])O)O)cccc3], the “Growth Inhibition” value in the series on F. tularensis Schu S4 [1] was “No”. Take `CC1(C)S[C@@H]2[C@H](NC(=O)COc3ccccc3)C(=O)N2[C@H]1C(=O)O` [Compound 37, S1[C@H]2N([C@H](C1(C)C)C( = O)[O-])C( = O)[C@H]2NC( = O)COc3ccccc3]: the “Growth Inhibition” value with F. tularensis Schu S4 [1] is “No”. On to `CC1=CC(O)(c2ccccc2)N(C(=O)c2ccncc2)N1` (centres unmarked) [Compound 39, N2(NC( = CC2(O)c3ccccc3)C)C( = O)c1ccncc1], for which the “Growth Inhibition” value in the series with F. tularensis Schu S4 [1] is reported as “No”. Regarding `COc1ccc(C2(O)C=C(C)NN2C(=O)c2ccccc2)cc1` (centres unmarked) [Compound 40, N2(NC( = CC2(O)c3ccc(cc3)OC)C)C( = O)c1ccccc1], the “Growth Inhibition” value in the series on F. tularensis Schu S4 [1] is “No”. As for “N2(NC( = CC2(O)c3cc(ccc3)OC)CC)C( = O)c1ccccc1 [Compound 38]”, the “Growth Inhibition” value with F. tularensis Schu S4 [1] was “No”.

For orientation: IC50 means the concentration at which inhibition is half-maximal.
